Results as given in ChEMBL document CHEMBL1938325, “Synthesis of new 5,6-dihydrobenzo[h]quinazoline 2,4-diamino substituted and antiplatelet/antiphlogistic activities evaluation” (Bioorg Med Chem Lett, 2012).
Calls of active or inactive are those of the source. No cut-off for these calls is given here.

Tests used:
Rattus norvegicus [1] = experiment: Antiphlogistic activity in Wistar rat assessed as inhibition of carrageenan-induced paw oedema at 100 mg/kg, po; type: functional
Platelet [2] = experiment: Antiplatelet activity against guinea pig platelet-rich plasma assessed as inhibition of U46619-induced platelet aggregation up to 500 uM measured within 3 hrs by turbidimetric method; type: functional; conditions: Cavia porcellus
Rattus norvegicus [3] = experiment: Antiphlogistic activity in Wistar rat assessed as inhibition of carrageenan-induced paw oedema at 50 mg/kg, po; type: functional
[4] = Antiplatelet activity against guinea pig platelet-rich plasma assessed as inhibition of ADP-induced platelet aggregation measured within 3 hrs by turbidimetric method; type: functional; conditions: Cavia porcellus
Rattus norvegicus [5] = experiment: Antiphlogistic activity in Wistar rat assessed as inhibition of carrageenan-induced paw oedema at 25 mg/kg, po; type: functional
Mus musculus [6] = experiment: Antinociceptive activity in Swiss mouse assessed as inhibition of acetic acid induced writhing at 100 mg/kg, po measured every 5 mins for 45 mins; type: functional
[7] = Antiplatelet activity against guinea pig platelet-rich plasma assessed as inhibition of arachidonic acid-induced platelet aggregation measured within 3 hrs by turbidimetric method; type: functional; conditions: Cavia porcellus
Mus musculus [8] = experiment: Antinociceptive activity in Swiss mouse assessed as inhibition of acetic acid induced writhing at 25 mg/kg, po measured every 5 mins for 45 mins; type: functional
Mus musculus [9] = experiment: Toxicity in Swiss mouse assessed as sedation at 25 to 100 mg/kg, po; type: organism-based; parameters: dose 25-100 mg/kg, route oral; conditions: in vivo
[10] = molecular target: Prostaglandin G/H synthase 1 (Homo sapiens) (UniProt P23219); experiment: Inhibition of COX-1 at 1 mM
Sequence of Prostaglandin G/H synthase 1 (Homo sapiens) (P23219 whole entry): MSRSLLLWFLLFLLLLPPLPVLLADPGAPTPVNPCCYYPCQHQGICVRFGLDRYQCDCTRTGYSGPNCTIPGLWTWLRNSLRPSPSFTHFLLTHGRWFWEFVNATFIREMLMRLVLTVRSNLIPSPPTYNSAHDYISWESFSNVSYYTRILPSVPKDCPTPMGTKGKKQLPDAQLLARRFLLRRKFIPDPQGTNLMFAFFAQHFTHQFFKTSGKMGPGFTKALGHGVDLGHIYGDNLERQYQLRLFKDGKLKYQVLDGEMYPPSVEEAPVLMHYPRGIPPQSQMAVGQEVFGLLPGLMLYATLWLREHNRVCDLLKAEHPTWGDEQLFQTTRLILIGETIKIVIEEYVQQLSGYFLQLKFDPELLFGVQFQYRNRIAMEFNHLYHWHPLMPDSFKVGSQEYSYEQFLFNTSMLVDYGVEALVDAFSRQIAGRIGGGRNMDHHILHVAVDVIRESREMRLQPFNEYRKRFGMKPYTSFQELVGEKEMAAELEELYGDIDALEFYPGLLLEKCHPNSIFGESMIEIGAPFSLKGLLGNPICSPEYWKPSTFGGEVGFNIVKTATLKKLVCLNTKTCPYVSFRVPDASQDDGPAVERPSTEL

Mus musculus [11] = experiment: Antinociceptive activity in Swiss mouse assessed as inhibition of acetic acid induced writhing at 50 mg/kg, po measured every 5 mins for 45 mins; type: functional
Mus musculus [12] = experiment: Toxicity in Swiss mouse assessed as effect on spontaneous locomotion activity at 25 to 100 mg/kg, po by classic open filed test; type: organism-based; parameters: dose 25-100 mg/kg, route oral; conditions: in vivo
[13] = molecular target: T1, Prostaglandin G/H synthase 2 (Homo sapiens) (UniProt P35354); experiment: Inhibition of COX-2 at 1 mM
T1 sequence (whole entry): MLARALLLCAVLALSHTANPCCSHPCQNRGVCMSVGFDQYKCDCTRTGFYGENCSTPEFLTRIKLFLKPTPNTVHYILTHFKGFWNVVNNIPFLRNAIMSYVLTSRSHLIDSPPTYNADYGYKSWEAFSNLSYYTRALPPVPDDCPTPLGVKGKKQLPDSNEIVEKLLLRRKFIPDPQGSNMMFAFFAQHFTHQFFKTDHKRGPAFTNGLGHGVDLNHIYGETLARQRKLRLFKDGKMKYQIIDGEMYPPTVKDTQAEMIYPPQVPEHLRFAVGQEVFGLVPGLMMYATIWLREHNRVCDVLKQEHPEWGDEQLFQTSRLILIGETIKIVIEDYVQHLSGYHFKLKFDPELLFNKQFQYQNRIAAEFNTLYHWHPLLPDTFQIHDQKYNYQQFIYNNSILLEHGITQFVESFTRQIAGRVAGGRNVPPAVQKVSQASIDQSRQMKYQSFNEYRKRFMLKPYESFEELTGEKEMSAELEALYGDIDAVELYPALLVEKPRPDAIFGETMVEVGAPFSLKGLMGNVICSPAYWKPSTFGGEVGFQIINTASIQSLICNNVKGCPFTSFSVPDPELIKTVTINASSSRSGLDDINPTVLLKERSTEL

[14] = Antiplatelet activity against guinea pig platelet-rich plasma assessed as inhibition of U46619-induced platelet aggregation measured within 3 hrs by turbidimetric method; type: functional; conditions: Cavia porcellus
Platelet [15] = experiment: Antiplatelet activity against guinea pig platelet-rich plasma assessed as inhibition of ADP-induced platelet aggregation up to 500 uM measured within 3 hrs by turbidimetric method; type: functional; conditions: Cavia porcellus
Rattus norvegicus [16] = experiment: Antiphlogistic activity in Wistar rat assessed as inhibition of carrageenan-induced paw oedema at 10 mg/kg, po; type: functional

Row | SMILES | IC50 [4] [µM] | IC50 [7] [µM] | Imax [10] [%] | Imax [13] [%] | IC50 [14] [µM] | inhibition in vivo at 100 mg/kg (Rattus norvegicus [1]) [%] | inhibition (Platelet [2]) | inhibition in vivo at 50 mg/kg (Rattus norvegicus [3]) [%] | inhibition in vivo at 25 mg/kg (Rattus norvegicus [5]) [%] | inhibition in vivo at 100 mg/kg (Mus musculus [6]) [%] | inhibition in vivo at 25 mg/kg (Mus musculus [8]) [%] | Activity (Mus musculus [9]) | inhibition in vivo at 50 mg/kg (Mus musculus [11]) [%] | Activity (Mus musculus [12]) | inhibition (Platelet [15]) | inhibition in vivo at 10 mg/kg (Rattus norvegicus [16]) [%]
1 | Nc1nc2c(c(N3CCCC3)n1)CCc1ccccc1-2 | 307 | 166 |  |  |  | 42 | inactive | 42 | 0 | 30 |  |  |  |  |  | 
2 | Nc1nc2c(c(N3CCOCC3)n1)CCc1ccccc1-2 | 341 | 224 |  |  |  | 40 | inactive | 0 |  | 19 |  |  |  |  |  | 
3 | CC(=O)Oc1ccccc1C(=O)O [ASPIRIN] | > 500 | 45 |  |  |  |  | inactive |  |  |  |  |  |  |  |  | 
4 | Nc1nc(NCc2ccccc2)c2c(n1)-c1ccccc1CC2 |  | 200 |  |  |  | 23 | inactive |  |  | 62 |  |  | 8 |  | inactive | 
5 | COc1ccc2c(c1)c(CC(=O)O)c(C)n2C(=O)c1ccc(Cl)cc1 [INDOMETHACIN] |  |  |  |  |  |  |  |  |  |  |  |  |  |  |  | 45
6 | CNc1nc(Nc2ccccc2)c2c(n1)-c1ccccc1CC2 |  | 105 |  |  |  | 5 | inactive |  |  | 54 |  |  | 0 |  | inactive | 
7 | Nc1nc(NCCc2ccccc2)c2c(n1)-c1ccccc1CC2 |  | 89 |  |  |  | 19 | inactive | 20 |  | 54 |  |  | 32 |  | inactive | 

Second part, led by results:

Row | IC50 [4] [µM] | IC50 [7] [µM] | Imax [10] [%] | Imax [13] [%] | IC50 [14] [µM] | SMILES | inhibition in vivo at 100 mg/kg (Rattus norvegicus [1]) [%] | inhibition (Platelet [2]) | inhibition in vivo at 50 mg/kg (Rattus norvegicus [3]) [%] | inhibition in vivo at 25 mg/kg (Rattus norvegicus [5]) [%] | inhibition in vivo at 100 mg/kg (Mus musculus [6]) [%] | inhibition in vivo at 25 mg/kg (Mus musculus [8]) [%] | Activity (Mus musculus [9]) | inhibition in vivo at 50 mg/kg (Mus musculus [11]) [%] | Activity (Mus musculus [12]) | inhibition (Platelet [15]) | inhibition in vivo at 10 mg/kg (Rattus norvegicus [16]) [%]
8 | > 500 | 46 | 28.7 | 50.7 |  | CN(C)c1nc(Nc2ccccc2)c2c(n1)-c1ccccc1CC2 | 0 | inactive |  |  | 64 | 0 | Non-toxic | 51 | Non-toxic |  | 
9 | 311 | 89 | 50.5 | 38.6 | 205 | Nc1nc(Nc2ccccc2)c2c(n1)-c1ccccc1CC2 | 54 |  | 53 | 0 | 15 |  |  |  |  |  | 
10 | 336 | 68 |  |  | 385 | Nc1nc2c(c(N3CCCCC3)n1)CCc1ccccc1-2 | 31 |  | 41 | 0 | 0 |  |  |  |  |  | 
